What was measured:
Cyclin D1 [1] = test: Western blot of Cyclin D1 in Mino cell line; format: cell-based, Human
Description: (§1) Primary MCL cells were isolated from PBMC (with informed patient consent under a protocol approved by IRB) as described before. All the MCL patients were identified as outlined by the World Health Organization (WHO) classification. Human mantle cell lymphoma patient cell lines (Mino and Jeko) were obtained from Dr. Raymond Lai. Primary cells or MCL cell lines were incubated in RPMI 1640 media, supplemented with 10%-20% heat-inactivated fetal bovine serum, 2 mM L-glutamine and penicillin (100 U/mL)/streptomycin ([…]) at 37° C. in an atmosphere of 5% CO2. FTY720 was synthesized as previously described. Toxicity was determined by flow cytometry using Annexin-V-FITC and Propidium Iodide (PI) staining. Apoptotic cells were identified as Annexin-V+ and/or PI+ cells. Cells excluding both FITC and PI were considered viable. Western Blotting was performed as described previously using indicated antibodies. […]
(§2) FTY720 induced apoptosis is associated with down-modulation of Cyclin D1 and Akt. […] To determine if the FTY720 induced apoptosis is mediated through modulation of these targets relevant to the pathogenesis of the disease, we evaluated the effect of FTY720 on levels of Cyclin D1, p-Akt and Akt proteins by Wester Blotting analysis using specific antibodies in primary MCL cells and cell lines. […]

Cyclin D1 [2] = test: Western blot of Cyclin D1 in primary MCL cells; format: cell-based, Human
Description: as §1, §2

Akt = test: Western blot of p-Akt and Akt in primary MCL cells; format: cell-based, Human
Description: as §1, §2

PP2A = PP2A activity (malachite green phosphatase assay) in lysates of CLL cells; format: cell-based, Human; conditions: 10 uM FTY720
Description: PP2A Activity: The protein phosphatase activity of total cellular lysate was determined by measuring the generation of free PO4 from the threonine phosphopeptide using the malachite green-phosphate complex assay as described by the manufacturer (Upstate, Charlottesville, […].). Cell lysates were prepared in a low detergent lysis buffer (1% Nonidet P-40, 10 mM HEPES, 0.5M NaCl, 10% Glycerol, 1 mM PMSF, 5 mM Benzamidine, 10 μg/ml leupeptin). The phosphatase assay was performed in a PP2A-specific reaction buffer (Upstate) using 750 μM phosphopeptide substrate. After 30-min incubation at 30° C. malachite dye was added, and free phosphate was measured by optical density at 650 nm. To avoid variability among different immunoprecipitated samples, the phosphatase activities were normalized with the amount of PP2A immunoprecipitated, as detected and quantified by western blot analysis of each treatment group.
In order to determine if FTY720 induced activation of PP2A enzyme in CD19^+ B cells from CLL patients were treated with 10 uM FTY720 for 0, 1, 2, 3, 4 and 15 hrs and the PP2A activity in the lysates were quantified using a functional assay following immunoprecipitation of PP2A enzyme. As reported previously in other systems, FTY720 induced a consistent 2-3 fold increase in PP2A activation with the peak response observed at 4 hour post treatment (FIG. 6a). […] Similar phenomenon was also observed in Ramos B cell line. FTY720 induced activation of PP2A in Ramos cell line as early as 3 hours and this induced PP2A activity was inhibited by okadaic acid (FIG. 7a-b).

AML cell lines = test: Annexin V/PI apoptosis assay in AML cell lines; format: cell-based; conditions: 48 hours
Description: Cell cultures were exposed to vehicle control and increasing doses of FTY720 for 48 hours. Cells were then stained with Annexin V (AnnV) and propidium iodide (PI), and analyzed using routine flow cytometry. Percentage of viable cells (AnnV− PI−), cells undergoing apoptosis (AnnV+ PI−), and necrotic cells (AnnV+ PI+) are represented for each cell line studied in FIG. 10A.

`CCCCCCCCc1ccc(CCC(N)(CO)CO)cc1.Cl` [FTY720, 2-Amino-2-[2-(4-octylphenyl)ethyl]propane 1,3-diol hydrochloride] was tested, and the “reduction in Cyclin D1” value (Cyclin D1 [1]) was “pronounced inhibition seen as early as 24 hrs”, the “down-regulation of Cyclin D1 protein” value (Cyclin D1 [2]; 8 hrs post treatment) was 35% and the “down-regulation of Cyclin D1 protein” value (Cyclin D1 [2]; 24 hrs) was 70%. The p-Akt level (Akt) was “decrease in p-Akt”, the “increase in PP2A activation” value (PP2A) was 2-3 fold and the “time of peak PP2A response” value (PP2A) was 4 h. For the same molecule, the “apoptosis in AML cell lines” value (AML cell lines) was “induces apoptosis”.

Source: patent US8318812B2, “Therapeutic agents for the treatment of lymphoid malignancies” (The Ohio State University Research Foundation, priority 2006, dated 2012)
